Data reported in paper PMC7444661 (Journal of medicinal chemistry, 2019).
Values belong to the compound of their own block, whether it stands above or below them.

How the values were obtained:
PDE4B1-S133D = PDE4B1-S133D (Homo sapiens, UniProt Q07343, S133D/S659A/S661A); assay: PDE4 coupled enzyme assay of cAMP hydrolysis, PDE4B1-S133D; type: biochemical; settings: mean ± SD
PDE4D7-S129(wt) = PDE4D7-S129(wt) (Homo sapiens, UniProt Q08499, S715A/S717A); assay: PDE4 coupled enzyme assay of cAMP hydrolysis, PDE4D7-S129; type: biochemical; settings: mean ± SD
PDE4D7-S129D [1] = biological target: T1, PDE4D7-S129D (Homo sapiens, UniProt Q08499, S190D/S715A/S717A); assay: PDE4 coupled enzyme assay of cAMP hydrolysis, PDE4D7-S129D; type: biochemical; settings: mean ± SD
mice [2] = assay: Mouse novel object recognition after 24-hour delay; type: in vivo, Male ICR mice; settings: mouse NOR
[3] = Metabolite identification in human hepatocytes; type: in vitro ADME; settings: compound 23 incubated 4 hour with human hepatocytes
[4] = Metabolite identification in rat hepatocytes; type: in vitro ADME, male Wistar rats; settings: compound 23 incubated 4 hour with rat hepatocytes
dogs = assay: Dose range finding toxicology, dogs; type: in vivo; settings: 100 mg/kg
PDE4D3-S54D = PDE4D3-S54D (Homo sapiens, UniProt Q08499, S190D/S715A/S717A); assay: PDE4 coupled enzyme assay of cAMP hydrolysis, PDE4D3-S54D; type: biochemical; settings: mean ± SD
cynomolgus monkeys = assay: Emesis in cynomolgus monkeys; type: in vivo; settings: oral doses up to 50 mg/kg
rats and dogs = assay: Toxicological studies of 28 and 90 days duration; type: in vivo
humanized PDE4D mice = settings: cited from earlier work
ferrets = assay: Emesis in ferrets; type: in vivo; settings: oral doses up to 30 mg/kg
dog = assay: Safety pharmacology, cardiovascular function, dog; type: in vivo; settings: up to a maximum oral dose of 100 mg/kg
rats [5] = assay: Safety pharmacology, CNS and pulmonary, rats; type: in vivo; settings: up to a maximum oral dose of 60 mg/kg
mice [6] = assay: Anesthesia duration test; type: in vivo, Male ICR mice; settings: mouse
PDE4D2 = PDE4D2 (Homo sapiens, UniProt Q08499, S715A/S717A); assay: PDE4 coupled enzyme assay of cAMP hydrolysis, PDE4D2; type: biochemical; settings: mean ± SD
PDE1-11 = assay: Counter assays against PDE1-11; type: biochemical; settings: read-out: off target IC50 against PDE1-11; BPS Bioscience, all assays
rats [7] = assay: Dose range finding toxicology, rats; type: in vivo; settings: oral dose of 100 mg/kg
bacteria = assay: Mutagenicity in bacteria
FMR1 knockout mice = settings: cited from earlier work
PDE4D-cat = PDE4D-cat (Homo sapiens, UniProt Q08499, S715A/S717A); assay: PDE4 coupled enzyme assay of cAMP hydrolysis, PDE4D-cat; type: biochemical; settings: mean ± SD
[8] = Liver microsome stability; type: in vitro ADME, dog, mouse, rat and monkey; settings: human
Pharmacokinetics in mice = type: in vivo; settings: oral
PDE4D7-S129D [9] = biological target: T1, PDE4D7-S129D; assay: PDE4D7-S129D inhibition in the presence of bovine serum albumin; settings: bovine serum albumin at 1 mg/mL

T1 sequence (Q08499 1-748 isoform Q08499-11 S129D/S654A/S656A): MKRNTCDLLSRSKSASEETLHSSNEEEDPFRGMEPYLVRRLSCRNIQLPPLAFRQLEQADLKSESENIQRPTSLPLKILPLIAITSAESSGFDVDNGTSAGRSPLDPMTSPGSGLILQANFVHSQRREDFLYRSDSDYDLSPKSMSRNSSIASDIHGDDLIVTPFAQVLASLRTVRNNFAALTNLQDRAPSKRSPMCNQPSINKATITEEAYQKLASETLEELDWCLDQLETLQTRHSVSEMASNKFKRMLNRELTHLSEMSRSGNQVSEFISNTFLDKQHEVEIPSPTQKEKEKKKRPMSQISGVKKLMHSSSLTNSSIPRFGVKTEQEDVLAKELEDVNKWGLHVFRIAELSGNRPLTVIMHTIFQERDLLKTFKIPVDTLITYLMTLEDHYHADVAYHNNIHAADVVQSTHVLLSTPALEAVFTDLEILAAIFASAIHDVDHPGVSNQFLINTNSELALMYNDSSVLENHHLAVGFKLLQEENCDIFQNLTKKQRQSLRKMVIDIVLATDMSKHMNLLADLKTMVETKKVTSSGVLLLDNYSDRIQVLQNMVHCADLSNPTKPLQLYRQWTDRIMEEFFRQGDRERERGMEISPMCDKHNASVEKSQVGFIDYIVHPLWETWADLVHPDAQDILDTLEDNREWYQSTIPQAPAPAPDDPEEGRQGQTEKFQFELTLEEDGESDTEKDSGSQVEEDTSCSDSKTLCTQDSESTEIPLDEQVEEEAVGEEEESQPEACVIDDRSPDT
PDE4D7-S129(wt), sequence (Q08499 1-748 isoform Q08499-11 S654A/S656A): as the sequence (Q08499 1-748 isoform Q08499-11 S129D/S654A/S656A) above, with D129S counted along it
PDE4B1-S133D, sequence (Q07343 whole entry S133D/S659A/S661A): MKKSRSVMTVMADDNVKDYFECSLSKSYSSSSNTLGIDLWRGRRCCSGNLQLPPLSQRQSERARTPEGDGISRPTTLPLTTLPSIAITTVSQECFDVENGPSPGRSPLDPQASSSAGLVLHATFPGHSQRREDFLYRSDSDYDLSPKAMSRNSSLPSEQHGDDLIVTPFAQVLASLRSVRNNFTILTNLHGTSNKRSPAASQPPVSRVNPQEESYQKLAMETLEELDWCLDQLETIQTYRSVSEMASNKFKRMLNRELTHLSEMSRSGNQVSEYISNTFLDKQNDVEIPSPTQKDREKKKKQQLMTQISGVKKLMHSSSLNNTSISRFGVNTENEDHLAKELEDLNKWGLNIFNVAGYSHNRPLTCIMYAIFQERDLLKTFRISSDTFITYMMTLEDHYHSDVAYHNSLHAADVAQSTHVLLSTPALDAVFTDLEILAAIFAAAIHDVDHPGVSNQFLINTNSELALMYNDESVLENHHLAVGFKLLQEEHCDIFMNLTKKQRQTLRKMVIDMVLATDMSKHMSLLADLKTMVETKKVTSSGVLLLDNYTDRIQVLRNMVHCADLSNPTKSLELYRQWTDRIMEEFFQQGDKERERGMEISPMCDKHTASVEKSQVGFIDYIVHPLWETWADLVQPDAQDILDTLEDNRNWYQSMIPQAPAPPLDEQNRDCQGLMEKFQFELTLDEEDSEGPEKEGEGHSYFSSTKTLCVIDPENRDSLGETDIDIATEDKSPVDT
PDE4D3-S54D, sequence (Q08499 1-673 isoform Q08499-2 S54D/S579A/S581A): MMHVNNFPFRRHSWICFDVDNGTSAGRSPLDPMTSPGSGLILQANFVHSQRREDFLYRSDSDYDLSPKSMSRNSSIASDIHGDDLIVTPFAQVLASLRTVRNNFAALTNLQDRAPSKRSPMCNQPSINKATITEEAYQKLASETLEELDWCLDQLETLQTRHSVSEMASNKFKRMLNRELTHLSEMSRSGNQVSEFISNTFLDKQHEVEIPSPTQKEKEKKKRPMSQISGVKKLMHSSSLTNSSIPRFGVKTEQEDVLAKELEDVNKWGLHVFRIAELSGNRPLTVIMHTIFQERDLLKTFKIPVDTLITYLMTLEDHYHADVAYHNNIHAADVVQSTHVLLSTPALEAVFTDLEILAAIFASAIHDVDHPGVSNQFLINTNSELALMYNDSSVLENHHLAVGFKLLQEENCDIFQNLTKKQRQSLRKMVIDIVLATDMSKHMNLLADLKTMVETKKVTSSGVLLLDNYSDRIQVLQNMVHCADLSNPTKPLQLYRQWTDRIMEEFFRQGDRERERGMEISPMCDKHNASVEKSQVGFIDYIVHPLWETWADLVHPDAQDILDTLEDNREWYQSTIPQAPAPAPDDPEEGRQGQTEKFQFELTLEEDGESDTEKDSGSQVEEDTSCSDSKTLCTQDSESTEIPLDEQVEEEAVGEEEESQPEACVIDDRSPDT
PDE4D-cat, sequence (Q08499 380-743 S715A/S717A): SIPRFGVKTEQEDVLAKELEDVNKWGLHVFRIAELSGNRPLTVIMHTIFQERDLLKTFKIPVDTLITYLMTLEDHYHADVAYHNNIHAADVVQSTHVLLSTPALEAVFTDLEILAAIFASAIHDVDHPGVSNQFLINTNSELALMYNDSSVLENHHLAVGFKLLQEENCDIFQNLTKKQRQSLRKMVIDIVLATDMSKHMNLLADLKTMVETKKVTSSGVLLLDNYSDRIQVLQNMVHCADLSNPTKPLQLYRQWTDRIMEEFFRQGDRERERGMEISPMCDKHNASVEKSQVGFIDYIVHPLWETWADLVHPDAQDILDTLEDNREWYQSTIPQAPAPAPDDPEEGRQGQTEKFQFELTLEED
PDE4D2, sequence (Q08499 303-809 S715A/S717A): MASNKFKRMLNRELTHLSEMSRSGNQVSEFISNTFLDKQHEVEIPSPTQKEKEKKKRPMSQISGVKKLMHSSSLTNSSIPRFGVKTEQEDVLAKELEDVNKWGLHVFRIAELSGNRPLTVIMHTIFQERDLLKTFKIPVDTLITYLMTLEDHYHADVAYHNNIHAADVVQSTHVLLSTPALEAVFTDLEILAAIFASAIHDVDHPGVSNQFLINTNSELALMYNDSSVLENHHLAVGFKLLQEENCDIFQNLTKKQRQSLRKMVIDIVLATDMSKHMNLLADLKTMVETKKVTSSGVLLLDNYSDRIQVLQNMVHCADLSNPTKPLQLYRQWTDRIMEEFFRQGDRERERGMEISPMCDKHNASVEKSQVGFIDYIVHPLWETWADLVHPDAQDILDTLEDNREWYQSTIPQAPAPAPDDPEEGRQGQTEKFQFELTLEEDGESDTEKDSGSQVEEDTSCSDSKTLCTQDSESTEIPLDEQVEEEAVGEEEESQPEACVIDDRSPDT

- percentage of metabolite present [3]: <1%
- percentage of metabolite present [4]: 29.1%
Compound: CCc1cc(Cc2ccc(CC(=O)O)cc2)nc(-c2cccc(Cl)c2)n1 [Compound M6]

- extended absorption (Pharmacokinetics in mice): 4 to 8 h
- shift in IC50 for PDE4D7-S129D inhibition in the presence of BSA (PDE4D7-S129D [9]): no shift
- parent remaining in liver microsomes ([8]; dog, mouse, rat and monkey liver microsomes, at 30 min): 54-90%
Compound: CCc1cc(Cc2ccc(CC(N)=O)cc2)nc(-c2cccc(Cl)c2)n1 [Compound 23, 2-(4-((2-(3-Chlorophenyl)-6-ethylpyrimidin-4-yl)methyl)phenyl)acetamide]

The next lines start with the compound.

Compound: CCc1cc(Cc2ccc(CC(=O)NCCO)cc2)nc(-c2cccc(Cl)c2)n1 [Compound 29, 2-(4-((2-(3-Chlorophenyl)-6-ethylpyrimidin-4-yl)methyl)phenyl)-N-(2-hydroxyethyl)acetamide]
- Hill Slope PDE4B1-S133D dimer activated (PDE4B1-S133D): 0.37 ± 0.04
- Hill Slope PDE4D7-S129(wt) dimer basal (PDE4D7-S129(wt)): 0.50 ± 0.1
- Hill Slope PDE4D7-S129D dimer activated (PDE4D7-S129D [1]): 0.66± 0.03

Compound: COc1ccc(C2CNC(=O)C2)cc1OC1CCCC1 (stereo not drawn) [rolipram, reference compound]
- dose that significantly improved novel object discrimination (mice [2]; SC): 0.1 mg/kg

Compound: O=C(O)Cc1ccc(Cc2cc(-c3cccc(Cl)c3)nc(C(F)(F)F)c2)cc1 [Compound 28, 2-(4-((2-(3-chlorophenyl)-6-(trifluoromethyl)pyridin-4-yl)methyl)phenyl)acetic acid]
- dose range finding toxicology findings (dogs): emesis, tremor and weight loss
- Hill Slope PDE4D3-S54D dimer activated (PDE4D3-S54D): 0.68 ± 0.14
- emesis (cynomolgus monkeys): nor did it cause emesis
- vascular toxicity and microscopic findings (rats and dogs): did not reveal vascular toxicity nor any other microscopic findings
- potency in humanized PDE4D mice as compared to wild-type mice (humanized PDE4D mice): increased potency
- brain cAMP (humanized PDE4D mice; mice): increases
- late phase of hippocampal long-term potentiation (LTP) (humanized PDE4D mice; mice): augments
- phosphorylation of CREB (humanized PDE4D mice; mice): increases
- production of brain-derived neurotrophic factor (BDNF) in hippocampus (humanized PDE4D mice; mice): increases
- short and long term memory (humanized PDE4D mice; mice): improves
- emesis (ferrets): did not cause emesis
- Hill Slope PDE4B1-S133D dimer activated (PDE4B1-S133D): 0.92 ± 0.21
- effect on cardiovascular function (dog): no effect
- adverse CNS or pulmonary effects (rats [5]): no adverse CNS or pulmonary effects
- Hill Slope PDE4D7-S129(wt) dimer basal (PDE4D7-S129(wt)): 0.58 ± 0.11
- doses that significantly improved novel object discrimination (mice [2]; oral (PO), versus vehicle): above 0.3 mg/kg
- effect on anesthesia duration (mice [6]; doses of 3, 10 and 30 mg/kg PO): no significant effect
- change in anesthesia duration (mice [6]; doses up to 30 mg/kg): no change
- Hill Slope PDE4D7-S129D dimer activated (PDE4D7-S129D [1]): 0.55± 0.12
- Hill Slope PDE4D2 monomer (PDE4D2): 0.60± 0.16
- IC50 (PDE1-11): > 10 µM
- dose range finding toxicology findings (rats [7]): inappetence and weight loss
- mutagenicity in bacteria (bacteria): not mutagenic
- maturation of dendritic spines on layer 2/3 pyramidal cells (FMR1 knockout mice; FMR1 knockout mice): promotes
- behavior of adult FMR1 knockout mice (FMR1 knockout mice): normalizes
- Hill Slope PDE4D-cat monomer (PDE4D-cat): 1.2 ± 0.10
- remaining in liver microsomes ([8]; rat, mouse and dog liver microsomes, after 30 min incubation): 88-100%
